# Test results: ChEMBL document CHEMBL3804802, “Novel sulfonamide bearing coumarin scaffolds as selective inhibitors of tumor associated carbonic anhydrase isoforms IX and XII” (Bioorg Med Chem, 2016)
# Target: Carbonic anhydrase 9 (Homo sapiens, UniProt Q16790)
# Assay: Inhibition of human carbonic anhydrase 9 using saturated CO2 as substrate incubated for 10 mins prior to testing by stopped-flow CO2 hydrase assay
row,SMILES,Ki [nM]
1,NS(=O)(=O)c1ccc2c(c1)sc1nc(-c3cc4ccccc4oc3=O)cn12,43.6
2,NS(=O)(=O)c1ccc2c(c1)sc1nc(-c3cc4cc(Cl)ccc4oc3=O)cn12,11.4
3,NS(=O)(=O)c1ccc2c(c1)sc1nc(-c3cc4cc(Br)ccc4oc3=O)cn12,24.9
4,NS(=O)(=O)c1ccc(Nc2nc(-c3cc4cc(Br)ccc4oc3=O)cs2)cc1,23.6
5,NS(=O)(=O)c1ccc(-n2cc(/C=N\Nc3nc(-c4cc5cc(Br)ccc5oc4=O)cs3)c(-c3ccccc3)n2)cc1,21.6
6,NS(=O)(=O)c1ccc(-n2cc(/C=N\Nc3nc(-c4cc5ccccc5oc4=O)cs3)c(-c3ccc(F)cc3)n2)cc1,2.28
7,NS(=O)(=O)c1ccc(-n2cc(/C=N\Nc3nc(-c4cc5cc(Br)ccc5oc4=O)cs3)c(-c3ccc(F)cc3)n2)cc1,26.5
8,Cc1ccc(-c2nn(-c3ccc(S(N)(=O)=O)cc3)cc2/C=N\Nc2nc(-c3cc4ccccc4oc3=O)cs2)cc1,28.6
9,Cc1ccc(-c2nn(-c3ccc(S(N)(=O)=O)cc3)cc2/C=N\Nc2nc(-c3cc4cc(Cl)ccc4oc3=O)cs2)cc1,24.5
10,C/C(=N\Nc1ccc(S(N)(=O)=O)cc1)c1cc2ccccc2oc1=O,58.6
11,NS(=O)(=O)c1ccc(-n2cc(/C=N\Nc3nc(-c4cc5ccccc5oc4=O)cs3)c(-c3ccccc3)n2)cc1,19.7
12,NS(=O)(=O)c1ccc(Nc2nc(-c3cc4cc(Cl)ccc4oc3=O)cs2)cc1,25
13,COc1ccc(-c2nn(-c3ccc(S(N)(=O)=O)cc3)cc2/C=N\Nc2nc(-c3cc4cc(Cl)ccc4oc3=O)cs2)cc1,20.4
14,NS(=O)(=O)c1ccc(-n2cc(/C=N\Nc3nc(-c4cc5cc(Cl)ccc5oc4=O)cs3)c(-c3ccccc3)n2)cc1,28.3
15,COc1ccc(-c2nn(-c3ccc(S(N)(=O)=O)cc3)cc2/C=N\Nc2nc(-c3cc4ccccc4oc3=O)cs2)cc1,21.6
16,NS(=O)(=O)c1ccc(Nc2nc(-c3cc4ccccc4oc3=O)cs2)cc1,23.8
17,NS(=O)(=O)c1ccc(-n2cc(/C=N\Nc3nc(-c4cc5cc(Cl)ccc5oc4=O)cs3)c(-c3ccc(Cl)cc3)n2)cc1,28.1
18,NS(=O)(=O)c1ccc(-n2cc(/C=N\Nc3nc(-c4cc5ccccc5oc4=O)cs3)c(-c3ccc(Cl)cc3)n2)cc1,2.32
19,C/C(=N\Nc1ccc(S(N)(=O)=O)cc1)c1cc2cc(Cl)ccc2oc1=O,2.35
20,C/C(=N\Nc1ccc(S(N)(=O)=O)cc1)c1cc2cc(Br)ccc2oc1=O,23.6
21,Cc1ccc(-c2nn(-c3ccc(S(N)(=O)=O)cc3)cc2/C=N\Nc2nc(-c3cc4cc(Br)ccc4oc3=O)cs2)cc1,26
22,NS(=O)(=O)c1ccc(-n2cc(/C=N\Nc3nc(-c4cc5cc(Cl)ccc5oc4=O)cs3)c(-c3ccc(F)cc3)n2)cc1,2.54
23,NS(=O)(=O)c1ccc(-n2cc(/C=N\Nc3nc(-c4cc5cc(Br)ccc5oc4=O)cs3)c(-c3ccc(Cl)cc3)n2)cc1,23.1
24,COc1ccc(-c2nn(-c3ccc(S(N)(=O)=O)cc3)cc2/C=N\Nc2nc(-c3cc4cc(Br)ccc4oc3=O)cs2)cc1,20.1
